Here are results for one molecule from ChEMBL document CHEMBL5143564, “PES derivative PESA is a potent tool to globally profile cellular targets of PES” (Bioorg Med Chem Lett, 2022).

Molecules are shown by their SMILES. The source made the active and inactive calls. The rule behind the calls is not given here.

The subject of data set [1] is DOHH-2. Briefly: Induction of autophagy in human DOHH-2 cells assessed as reduction in p62 expression at 8 uM measured after 4 to 24 hrs by Western blot analysis. Format: functional, cell-based. The note with it: time 4-24 hrs.
Data set [2] has as its target T1, Peroxiredoxin-1 (Homo sapiens) (UniProt Q06830).
T1 sequence (whole entry): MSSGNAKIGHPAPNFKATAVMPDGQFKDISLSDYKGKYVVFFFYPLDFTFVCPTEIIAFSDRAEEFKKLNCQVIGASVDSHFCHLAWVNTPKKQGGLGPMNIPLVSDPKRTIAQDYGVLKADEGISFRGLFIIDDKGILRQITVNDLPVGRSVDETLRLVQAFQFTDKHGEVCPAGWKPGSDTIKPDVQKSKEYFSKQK
Briefly: Binding affinity to PRDX1 in human DOHH-2 cells by MS analysis. Format: cell-based.

The species named for the next data set is Homo sapiens. Briefly: Binding affinity to ADP-bound full-length human HSP70 by TAMRA-azide based fluorescence imaging analysis. The note with it: dose 0.2-20 µM, DDE = dose-dependent effect.
The target in data set [3] is T2, Thioredoxin-dependent peroxide reductase, mitochondrial (Homo sapiens) (UniProt P30048).
T2 sequence (whole entry): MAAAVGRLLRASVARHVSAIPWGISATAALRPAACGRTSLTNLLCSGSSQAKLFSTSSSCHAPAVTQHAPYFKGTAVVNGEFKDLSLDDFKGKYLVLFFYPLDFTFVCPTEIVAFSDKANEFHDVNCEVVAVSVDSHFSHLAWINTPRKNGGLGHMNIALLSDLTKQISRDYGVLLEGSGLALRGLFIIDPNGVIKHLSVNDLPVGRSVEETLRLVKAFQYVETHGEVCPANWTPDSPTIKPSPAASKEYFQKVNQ
In words: Binding affinity to PRDX3 in human DOHH-2 cells by MS analysis. It counts as cell-based.

For data set [4], the target named is T3, Peroxiredoxin-5, mitochondrial (Homo sapiens) (UniProt P30044).
T3 sequence (whole entry): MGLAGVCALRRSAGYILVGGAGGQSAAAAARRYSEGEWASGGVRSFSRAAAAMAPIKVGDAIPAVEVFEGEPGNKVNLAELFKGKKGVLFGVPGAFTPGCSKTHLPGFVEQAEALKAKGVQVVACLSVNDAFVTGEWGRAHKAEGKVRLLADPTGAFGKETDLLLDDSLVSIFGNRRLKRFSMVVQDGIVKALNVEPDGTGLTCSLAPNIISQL
In words: Binding affinity to PRDX5 in human DOHH-2 cells measured after 6 hrs by pull-down assay. The note with it: DDE = dose-dependent effect. It counts as cell-based.

For another data set, the system named is Jurkat. Briefly: Cytotoxicity against human Jurkat T cells up to 20 uM measured after 24 hrs. Format: functional, cell-based.
In data set [5] the target is T4, Protein disulfide-isomerase A6 (Homo sapiens) (UniProt Q15084).
T4 sequence (whole entry): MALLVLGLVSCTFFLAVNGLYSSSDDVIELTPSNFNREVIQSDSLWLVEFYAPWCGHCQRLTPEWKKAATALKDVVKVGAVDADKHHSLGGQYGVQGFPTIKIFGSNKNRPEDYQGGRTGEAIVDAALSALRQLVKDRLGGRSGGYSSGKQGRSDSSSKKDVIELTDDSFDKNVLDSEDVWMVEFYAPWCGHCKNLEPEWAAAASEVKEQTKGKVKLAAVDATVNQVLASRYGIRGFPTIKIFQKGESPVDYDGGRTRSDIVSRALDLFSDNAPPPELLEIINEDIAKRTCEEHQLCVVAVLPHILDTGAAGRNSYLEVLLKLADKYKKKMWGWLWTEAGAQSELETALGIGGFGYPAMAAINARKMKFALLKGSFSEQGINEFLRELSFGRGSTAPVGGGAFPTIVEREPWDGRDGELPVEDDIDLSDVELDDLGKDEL
In words: Binding affinity to PDIA6 in human MDA-MB-453 cells measured after 6 hrs by pull-down assay. The note with it: dose <= 20.0 µM, DDE = dose-dependent effect. Format: cell-based.

For data set [6], the target named is Glutathione S-transferase P (Homo sapiens) (UniProt P09211). In words: Binding affinity to GSTP1 in human DOHH-2 cells measured after 6 hrs by pull-down assay. The note with it: DDE = dose-dependent effect. It counts as cell-based.
Data set [7] in a line: GSH reactivity in pH 7.4 buffer assessed as GSH adduct formation by measuring molecular weight at 1 mM by Q-TOF LC/MS analysis. Format: physicochemical. The settings on record: pH 7.4, 1000 µM.
Data set [8] has as its target T5, Tubulin beta (Homo sapiens) (UniProt P68371+Q9H4B7+Q13509+P04350+Q3ZCM7+P07437+Q13885+Q9BVA1+Q9BUF5+A6NNZ2). Briefly: Binding affinity to beta-tubulin in human MDA-MB-453 cells measured after 6 hrs by pull-down assay. It counts as cell-based. The settings on record: dose <= 20.0 µM, DDE = dose-dependent effect.
The target in data set [9] is Glutathione S-transferase 3, mitochondrial (Homo sapiens) (UniProt O14880). In words: Binding affinity to MGST3 in human MDA-MB-453 cells measured after 6 hrs by pull-down assay. It counts as cell-based. The note with it: dose <= 20.0 µM, DDE = dose-dependent effect.
The target in data set [10] is T5, Tubulin beta (Homo sapiens). In words: Binding affinity to beta-tubulin in human DOHH-2 cells by MS analysis. It counts as cell-based.
The target in data set [11] is T1, Peroxiredoxin-1 (Homo sapiens). Briefly: Binding affinity to PRDX1 in human MDA-MB-453 cells measured after 6 hrs by pull-down assay. Format: cell-based. The note with it: dose <= 20.0 µM, DDE = dose-dependent effect.
In another data set the test system is MDA-MB-453. In words: Cytotoxicity against human MDA-MB-453 cells measured after 72 hrs. Format: functional, cell-based.
Data set [12] deals with DOHH-2. Briefly: Induction of apoptosis in human DOHH-2 cells assessed as increase in cleaved PARP expression at 0.5 to 8 uM measured after 24 hrs by Western blot analysis. Format: functional, cell-based. The settings on record: dose 0.5-8 µM. (Immunoblotting shows a protein as a band on a membrane.)
The target in data set [13] is T3, Peroxiredoxin-5, mitochondrial (Homo sapiens). In words: Binding affinity to PRDX5 in human DOHH-2 cells by MS analysis. Format: cell-based.
Data set [14] addresses Tubulin alpha (Homo sapiens) (UniProt P0DPH7+P68366+Q71U36+P68363+Q9BQE3+Q6PEY2+A6NHL2+Q9NY65). In words: Binding affinity to alpha-tubulin in human MDA-MB-453 cells measured after 6 hrs by pull-down assay. Format: cell-based. The note with it: dose <= 20.0 µM, DDE = dose-dependent effect.
In a further data set the test system is HepG2. In words: Cytotoxicity against human HepG2 cells measured after 72 hrs. It counts as functional, cell-based.
For data set [15], the target named is T6, Protein disulfide-isomerase A4 (Homo sapiens) (UniProt P13667).
T6 sequence (whole entry): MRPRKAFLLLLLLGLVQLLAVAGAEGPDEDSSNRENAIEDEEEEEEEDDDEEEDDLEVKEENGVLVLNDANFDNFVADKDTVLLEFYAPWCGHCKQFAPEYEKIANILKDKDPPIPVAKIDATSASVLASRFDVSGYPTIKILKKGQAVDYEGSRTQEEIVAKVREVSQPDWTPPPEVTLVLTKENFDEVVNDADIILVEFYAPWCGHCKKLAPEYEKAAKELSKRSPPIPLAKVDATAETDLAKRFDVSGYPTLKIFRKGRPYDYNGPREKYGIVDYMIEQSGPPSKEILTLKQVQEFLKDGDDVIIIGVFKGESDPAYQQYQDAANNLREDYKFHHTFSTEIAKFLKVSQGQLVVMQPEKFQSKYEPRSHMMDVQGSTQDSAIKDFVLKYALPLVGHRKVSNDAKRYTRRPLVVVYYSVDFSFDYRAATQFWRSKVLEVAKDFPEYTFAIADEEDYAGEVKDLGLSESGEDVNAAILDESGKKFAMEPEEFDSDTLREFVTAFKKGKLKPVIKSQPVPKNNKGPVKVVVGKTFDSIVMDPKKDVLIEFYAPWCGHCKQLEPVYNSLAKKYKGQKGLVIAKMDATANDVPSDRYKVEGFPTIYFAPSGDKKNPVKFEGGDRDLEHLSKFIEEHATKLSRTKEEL
Briefly: Binding affinity to PDIA4 in human DOHH-2 cells by MS analysis. It counts as cell-based.

Sequence of Glutathione S-transferase 3, mitochondrial (Homo sapiens) (O14880 whole entry): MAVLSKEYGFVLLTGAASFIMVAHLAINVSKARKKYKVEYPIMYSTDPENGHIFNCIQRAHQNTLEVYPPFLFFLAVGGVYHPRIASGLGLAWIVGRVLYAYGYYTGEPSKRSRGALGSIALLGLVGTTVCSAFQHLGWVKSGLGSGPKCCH
Sequence of Glutathione S-transferase P (Homo sapiens) (P09211 2-210 limits assumed): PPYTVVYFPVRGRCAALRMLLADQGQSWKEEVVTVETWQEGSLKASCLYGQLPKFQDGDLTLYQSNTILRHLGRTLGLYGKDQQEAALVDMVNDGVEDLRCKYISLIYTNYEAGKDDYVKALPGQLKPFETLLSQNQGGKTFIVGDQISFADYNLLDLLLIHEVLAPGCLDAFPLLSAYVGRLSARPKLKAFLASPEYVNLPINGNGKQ

Turning to `C#Cc1cccc(C#CS(N)(=O)=O)c1`, the outcome (with DOHH-2 [1]; in data set [2]; in data set [3]; in the data set on Jurkat; in data set [10]; in the data set with MDA-MB-453) was Active. Also, the result (in the data set on DOHH-2 [12]; in [13]; in the data set on HepG2; in [15]) was Active. Further, the Activity result in the data set filed under Homo sapiens is “Dde”; in data set [4], “Dde”; in [5], “Dde”; in data set [6], “Dde”; in [7], 513 Da; in data set [8], “Dde”. In addition, the Activity result in [9], in [11] and in data set [14] was “Dde” each time.
